Measurements from article PMC7582905, “Effect of Disulfide Cyclization of Ultrashort Cationic Lipopeptides on Antimicrobial Activity and Cytotoxicity” (International Journal of Molecular Sciences, 2020).
In brackets after ≈: the same amount, converted by molar mass. Where a SMILES comes first, the peptide text is derived from it. Bridges are numbered along the chain shown (N, C = ends). The star is where a group is joined. Palmitoyl = CCCCCCCCCCCCCCCC(=O)*

What was measured:
[1] = tested on: Candida glabrata ATCC 15126; type: cell-based; conditions: ATCC 15126, 24 h
Description: (§1) The Staphylococcus aureus ATCC 25923, Staphylococcus epidermidis ATCC 14990, Escherichia coli ATCC 25922, Pseudomonas aeruginosa ATCC 9027, Candida albicans ATCC 10231, Candida glabrata ATCC 15126, Candida lipolytica PCM 2680-FY, and Candida tropicalis PCM 2709-FY strains were acquired from the Polish Collection of Microorganisms (PCM, Polish Academy of Sciences, Wrocław, Poland) and from the American Type Culture Collection (ATCC). All the strains were stored at −80 °C in Roti-Store cryo vials and before the tests were transferred into fresh Mueller–Hinton broth (MHB, Biocorp, Warsaw, Poland) for bacteria or RPMI-1640 (Sigma-Aldrich, Steinheim, Germany) for fungi and incubated for 24 h at 37 °C. Then, the cultures were seeded on Mueller–Hinton agar (BioMaxima, Lublin, Poland) or Sabouraud dextrose agar (SDA, BioMaxima, Lublin, Poland) plates, respectively, and incubated as just mentioned. These agar cultures were used for further microbiological assays. Cell densities for all assays were adjusted spectrophotometrically (Multiskan GO Microplate Spectrophotometer, Thermo Fisher Scientific, Vantaa, Finland) at 600 and 660 nm for bacteria and fungi, respectively.
(§2) The MICs were determined by broth microdilution method according to the Clinical and Laboratory Standard Institute guidelines For this purpose, initial inoculums of bacteria (5 × 10^5 CFU/mL) in MHB and yeasts (2 × 10^3 CFU/mL) in RPMI-1640 with 2% D-glucose were exposed to the ranging concentration of lipopeptides (0.5–256 μg/mL) and incubated at 37 °C for 18 h and 24 h, respectively. The experiments were conducted on 96-well microtiter polystyrene plates. The growth was assessed visually after incubation and the MIC was assumed as the lowest peptide concentration at which a noticeable growth of microorganisms was inhibited. All experiments were conducted in triplicate.

[2] = tested on: Escherichia coli ATCC 25922; type: cell-based; conditions: ATCC 25922, 18 h
Description: as §1, §2

[3] = tested on: Pseudomonas aeruginosa ATCC 9027; type: cell-based; conditions: ATCC 9027, 18 h
Description: as §1, §2

[4] = tested on: Candida tropicalis PCM 2709-FY; type: cell-based; conditions: PCM 2709-FY, 24 h
Description: as §1, §2

[5] = tested on: Candida lipolytica PCM 2680-FY; type: cell-based; conditions: 24 h
Description: as §1, §2

[6] = tested on: Staphylococcus epidermidis ATCC 14990; type: cell-based; conditions: ATCC 14990, 18 h
Description: as §1, §2

[7] = tested on: Candida albicans ATCC 10231; type: cell-based; conditions: ATCC 10231, 24 h
Description: as §1, §2

[8] = tested on: Candida glabrata ATCC 15126; type: cell-based; conditions: ATCC 15126, 24 h; remark: listed apart in the source
Description: as §1
(§3) The assay was performed to evaluate the effect of the lipopeptides in preventing biofilm formation. The preparation of inoculums was followed by a ca. 500-fold dilution of the 24 h cultures of microorganisms. Briefly, 50 μL of the compounds in the concentration range, diluted in appropriate medium, were prepared on 96-well polystyrene flat-bottom plates. Subsequently, the 50 μL of the bacterial/fungal inoculums were added to reach the same microbial density as that in the MBEC assay. After 24 h of incubation at 37 °C, the wells were rinsed three times with PBS and the fresh media with resazurin (4 g/L) were added. The MBICs were read after 1 h. All experiments were conducted in triplicate.

[9] = tested on: Escherichia coli ATCC 25922; type: cell-based; conditions: ATCC 25922, 24 h
Description: as §1, §3

[10] = tested on: Pseudomonas aeruginosa ATCC 9027; type: cell-based; conditions: ATCC 9027, 24 h
Description: as §1, §3

[11] = tested on: Candida tropicalis PCM 2709-FY; type: cell-based; conditions: PCM 2709-FY, 24 h; remark: listed apart in the source
Description: as §1, §3

[12] = tested on: Candida lipolytica PCM 2680-FY; type: cell-based; conditions: 24 h; remark: listed apart in the source
Description: as §1, §3

[13] = tested on: Staphylococcus epidermidis ATCC 14990; type: cell-based; conditions: ATCC 14990, 24 h
Description: as §1, §3

[14] = tested on: Staphylococcus aureus ATCC 25923; type: cell-based; conditions: ATCC 25923, 24 h
Description: as §1, §3

[15] = tested on: Candida albicans ATCC 10231; type: cell-based; conditions: ATCC 10231, 24 h; remark: listed apart in the source
Description: as §1, §3

[16] = RP-HPLC determination of peptide hydrophobicity; type: physicochemical; conditions: 0.1% TFA; for reduced retention time t’R: RP-HPLC retention as measure of hydrophobicity, Waters X-Bridge Shield RP-18 3.0 × 100 mm, 3.5 μm, linear 20–65% acetonitrile in water over 30 min, 0.5 mL/min, 25.0 °C, UV 214 nm, 1 g/L, triplicate; for ∆tR: tR of cyclic analog − tR of parent lipopeptide, RP-HPLC, RP-18, 20–65% acetonitrile over 30 min
Description: The peptides were analyzed by RP-HPLC to determine relative hydrophobicity vs. retention time of each compound. In general, more hydrophobic lipopeptides will elute later than hydrophilic ones. Using this simple rule enables comparison of hydrophobicity by reduced retention times (t’R) and differences in retention time between the cyclic analog and its linear parent lipopeptide (Table 1). It can be deduced that the presence of cystine moiety has led to increased hydrophobicity. All cyclic lipopeptides are more hydrophobic than their linear counterparts but the effect of disulfide cyclization on retention is different in each pair. The highest increase in retention was noticed for the shortest lipopeptides L1 (C16-KKK-NH2) and C1 (C16-CKKKC-NH2). The differences between lipopeptides with one arginine residue indicate that its position is crucial for retention and therefore hydrophobicity. To learn how the arginine position affects hydrophobicity, the retention time of compound L2 (C16-KKKK-NH2) or C2 (C16-CKKKKC-NH2) was subtracted from that of the lipopeptides with one arginine residue, linear (L3, L4, L5, L6) or cyclic (C3, C4, C5, C6), respectively. In Figure 2 the effect of arginine position on retention time is related to unsubstituted lipopeptide.
To determine peptide hydrophobicity, a Waters Alliance e2695 system with a Waters 2998 PDA Detector (software-Empower 3, Waters, Milford, MA, USA) was used. All analyses were carried out on a Waters X-Bridge Shield RP-18 column (3.0 × 100 mm, 3.5 μm particle size, 130 Å pore size). The Shield Technology column with embedded polar groups was used to minimize interactions of unreacted silanol groups with basic lipopeptides. The peptides were dissolved in water (0.1% TFA, v/v) up to a concentration of 1 g/L. UV detection at 214 nm was used, and samples (10 μL) were eluted with a linear 20–65% acetonitrile gradient in deionized water over 30 min at 25.0 ± 0.1 °C. The mobile phase flow rate was 0.5 mL/min. Both eluents contained 0.1% (v/v) of TFA. Each peptide sample was analyzed in triplicate. Maximum standard deviation and coefficient of variation were 0.042 and 0.25%, respectively.

| MIC C. glabrata [1] [µg/mL] | MIC E. coli [2] [µg/mL] | MIC P. aeruginosa [3] [µg/mL] | MIC C. tropicalis [4] [µg/mL] | MIC C. lipolytica [5] [µg/mL] | MIC S. epidermidis [6] [µg/mL] | MIC C. albicans [7] [µg/mL] | reduced retention time t’R [16] [min] | ∆tR [16] | Compound | MBIC C. glabrata [8] [µg/mL] | MBIC E. coli [9] [µg/mL] | MBIC P. aeruginosa [10] [µg/mL] | MBIC C. tropicalis [11] [µg/mL] | MBIC C. lipolytica [12] [µg/mL] | MBIC S. epidermidis [13] [µg/mL] | MBIC S. aureus [14] [µg/mL] | MBIC C. albicans [15] [µg/mL] |
| --- | --- | --- | --- | --- | --- | --- | --- | --- | --- | --- | --- | --- | --- | --- | --- | --- | --- |
| 64 (≈ 80.4 µM) | 8 (≈ 10 µM) | 64 (≈ 80.4 µM) | 8 (≈ 10 µM) | 8 (≈ 10 µM) | 4 (≈ 5.02 µM) | 32 (≈ 40.2 µM) | 14.89 | – | CCCCCCCCCCCCCCCC(=O)N[C@@H](CCCCN)C(=O)N[C@@H](CCCCN)C(=O)N[C@@H](CCCCN)C(=O)N[C@@H](CCCNC(=N)N)C(N)=O [L6, C16-KKKR-NH2] (Palmitoyl-KKKR-NH2) | 64 | 32 | 64 | 16 | 32 | 8 | 32 | 64 |
| 4 (≈ 4 µM) | 32 (≈ 32 µM) | 128 (≈ 128 µM) | 2 (≈ 2 µM) | 2 (≈ 2 µM) | 8 (≈ 8 µM) | 4 (≈ 4 µM) | 16.32 | +1.43 min | CCCCCCCCCCCCCCCC(=O)N[C@H]1CSSC[C@@H](C(N)=O)NC(=O)[C@H](CCCNC(=N)N)NC(=O)[C@H](CCCCN)NC(=O)[C@H](CCCCN)NC(=O)[C@H](CCCCN)NC1=O [C6, C16-CKKKRC-NH2] (Palmitoyl-CKKKRC-NH2; disulfide 1-6) | 8 | 64 | 64 | 8 | 8 | 8 | 32 | 16 |
| 8 (≈ 8 µM) | 16 (≈ 16 µM) | 256 (≈ 256 µM) | 4 (≈ 4 µM) | 4 (≈ 4 µM) | 4 (≈ 4 µM) | 16 (≈ 16 µM) | 16.16 | +1.15 min | CCCCCCCCCCCCCCCC(=O)N[C@H]1CSSC[C@@H](C(N)=O)NC(=O)[C@H](CCCCN)NC(=O)[C@H](CCCNC(=N)N)NC(=O)[C@H](CCCCN)NC(=O)[C@H](CCCCN)NC1=O [C5, C16-CKKRKC-NH2] (Palmitoyl-CKKRKC-NH2; disulfide 1-6) | 16 | 32 | 64 | 8 | 8 | 16 | 32 | 16 |
| 8 (≈ 8 µM) | 16 (≈ 16 µM) | – | 2 (≈ 2 µM) | 4 (≈ 4 µM) | 8 (≈ 8 µM) | 2 (≈ 2 µM) | 16.51 | +1.30 min | CCCCCCCCCCCCCCCC(=O)N[C@H]1CSSC[C@@H](C(N)=O)NC(=O)[C@H](CCCCN)NC(=O)[C@H](CCCCN)NC(=O)[C@H](CCCCN)NC(=O)[C@H](CCCNC(=N)N)NC1=O [C3, C16-CRKKKC-NH2] (Palmitoyl-CRKKKC-NH2; disulfide 1-6) | 8 | 64 | 64 | 4 | 2 | 8 | 16 | 8 |

| Compound | MIC C. glabrata [1] [µg/mL] | MIC E. coli [2] [µg/mL] | MIC P. aeruginosa [3] [µg/mL] | MIC C. tropicalis [4] [µg/mL] | MIC C. lipolytica [5] [µg/mL] | MIC S. epidermidis [6] [µg/mL] | MIC C. albicans [7] [µg/mL] | reduced retention time t’R [16] [min] | ∆tR [16] | MBIC C. glabrata [8] [µg/mL] | MBIC E. coli [9] [µg/mL] | MBIC P. aeruginosa [10] [µg/mL] | MBIC C. tropicalis [11] [µg/mL] | MBIC C. lipolytica [12] [µg/mL] | MBIC S. epidermidis [13] [µg/mL] | MBIC S. aureus [14] [µg/mL] | MBIC C. albicans [15] [µg/mL] |
| --- | --- | --- | --- | --- | --- | --- | --- | --- | --- | --- | --- | --- | --- | --- | --- | --- | --- |
| CCCCCCCCCCCCCCCC(=O)N[C@@H](CCCCN)C(=O)N[C@@H](CCCCN)C(=O)N[C@@H](CCCCN)C(=O)N[C@@H](CCCCN)C(N)=O [L2, C16-KKKK-NH2] (Palmitoyl-KKKK-NH2) | 64 (≈ 83.3 µM) | 32 (≈ 41.7 µM) | 16 (≈ 20.8 µM) | 4 (≈ 5.21 µM) | 8 (≈ 10.4 µM) | 8 (≈ 10.4 µM) | 32 (≈ 41.7 µM) | 14.77 | – | 128 | 32 | 64 | 16 | 32 | 16 | 32 | 128 |
| CCCCCCCCCCCCCCCC(=O)N[C@@H](CCCCN)C(=O)N[C@@H](CCCNC(=N)N)C(=O)N[C@@H](CCCCN)C(=O)N[C@@H](CCCCN)C(N)=O [L4, C16-KRKK-NH2] (Palmitoyl-KRKK-NH2) | 32 (≈ 40.2 µM) | 8 (≈ 10 µM) | 32 (≈ 40.2 µM) | 2 (≈ 2.51 µM) | 1 (≈ 1.26 µM) | 8 (≈ 10 µM) | 16 (≈ 20.1 µM) | 15.18 | – | 64 | 32 | 32 | 8 | 16 | 8 | 16 | 32 |
